One series concerns E. coli. The class given is cell-based, Escherichia coli. The procedure:
(§1) The optical density of the cell cultured was monitored at 600 nm (OD600 nm). The cells were cultured on 0.8 g/100 ml nutrient agar plate at pH 7.0 and 37° C. […] An overnight culture of the bacterial strain was sub-cultured to 0.06 OD600 nm into the NB medium and was then seeded at max 200 μl into the wells of a 96 well microtiter plate. Samples were then incubated at 37° C. and shaken at 200 rpm for 18 h. The absorbance was measured on an ELIZA plate reader and analyzed with the Gen5™ software suite (version 1.08).
(§2) • The data are reported as relative percentage growth compared to untreated cells.

For another series, the system named is VIM-2 expressing E. coli. The class given is cell-based, Escherichia coli. As to conditions: single dose; for VIM-2 expressing E. coli Amox (+) relative percentage growth compared to untreated cells: with 50 μM amoxicillin. How it is done: as §1, §2
Series [1] addresses T1, NDM-1 (Klebsiella pneumoniae, UniProt C7C422). The experiment in a line: biochemical. The procedure:
BL21 (DE3) E. coli cells containing the pET26b-ndm-1 plasmid were used to inoculate a 50 mL LB starter culture containing kanamycin (25 μg/mL). The culture was grown overnight at 37° C. The starter culture was then used to inoculate 4×1 L LB containing kanamycin (25 μg/mL). These flasks were incubated at 37° C. until culture reached an optical density of (OD600) of 0.6 to 0.8. The incubator was then set to 22° C. and the cultures were shaken for 30 min to allow them to cool. ZnCl2 ([…]) and IPTG (0.5 mM) were then added to the cultures and they were grown for 18 h at 22° C. The cells were then harvested using centrifugation (8000×g) for 10 min. The pellet was resuspended with 25 mL 50 mM HEPES, pH 7.5 containing 500 mM NaCl (Buffer B). Lysis was performed with three passes through a French Press. The lysate was centrifuged for 30 min (15,000×g) at 4° C. The supernatant was then dialyzed versus 2 L 50 mM HEPES, pH 7.5 (Buffer C) for 4 h. An FPLC was used to equilibrate a Q-Sepharose column using buffer C using a flowrate of 2.0 mL/min for 1.5 h. The lysate was then loaded onto the column and eluted with a linear NaCl gradient from 0-500 mM. Fractions containing NDM-1 were identified with SDS-PAGE. These fractions were pooled and concentrated to 2-3 mL in an Amicon ultracentrifugation concentrating unit with a YM-10 membrane. The resulting protein mixture was then loaded onto a Sephacryl S-200 gel filtration column run with 50 mM HEPES, pH 7.5 containing 150 mM NaCl (Buffer A). SDS-PAGE was used to identify fractions containing pure protein.
(§3) To identify potential MBL inhibitors, the relative change in the formation of hydrolyzed nitrocefin between treated and untreated MBL was determined as percentage inhibition. 5 nM of each BML was pre-incubated for 10 mins with 50 μM of each compound, followed by the addition of 10 μM nitrocefin.
(§4) Each MBL was incubated with 50 μM of each compound, followed by the addition of nitrocefin. The relative change in absorbance is reported as percentage inhibition.

The target of series [2] is T2, VIM-2 (Pseudomonas aeruginosa, UniProt Q5U7L7). Conditions: after incubation with inhibitor and dialysis. The procedure: VIM-2 was diluted to 6 μM with 50 mM HEPES, pH 7.5, containing 150 mM NaCl. The diluted protein solution was used to make several 5 mL aliquots. […] One aliquot contained one molar equivalent of inhibitor (6 μM), with respect to enzyme concentration, and the second aliquot contained two molar equivalents (12 μM). One aliquot contained no inhibitor. Each aliquot was then incubated for 4 h at 4° C. Following incubation, each aliquot was dialyzed versus 500 mL of 50 mM HEPES, pH 7.5, for 4 h at 4° C. The aliquots were analyzed using ICP-AES, as previously described REF. The emission wavelengths used were 213.856, 238.892, 259.940, 231.604, and 324.754 nm for Zn, Co, Fe, Ni, and Cu, respectively.
To further address the mode of action of 8-hydroxyquinolines, equilibrium dialysis experiments were conducted. […] EDTA, a well-known metal scavenger, inhibits all MBLs through a chelation mechanism (Bush, K.; Jacoby, G. A. Updated Functional Classification of beta-Lactamases. Antimicrobial Agents and Chemotherapy 2010, 54, 969-976).

Series [3] deals with T2, VIM-2. Nature of the series: biochemical. How it is done: (§5) The pET24a-VIM-2 plasmid was transformed into competent BL21 (DE3) E. coli cells. The cells were plated onto an LB-agar plate with kanamycin (25 μg/mL) and incubated overnight at 37° C. A single colony was used to inoculate 50 mL of LB, containing 25 μg/mL kanamycin, and the culture was shaken overnight at 37° C. From the overnight culture, 10 mL were transferred to 4×IL LB medium containing 25 μg/mL kanamycin. The cultures were grown at 37° C. until an optical density (OD600 nm) of 0.6-0.8 was reached, at which point protein production was induced with IPTG (0.5 mM) and ZnCl2 (100 μM). The temperature was reduced to 20° C., and the cells were shaken for an additional 18 h. The cultures were harvested by centrifugation (8 Kxg) for 10 min at 4° C. The resulting pellets were re-suspended in 25 mL of 50 mM HEPES, pH 7.5, containing 500 mM NaCl (buffer B). The cells were lysed with three passes through a French Press. The lysate was centrifuged (15 Kxg) for 30 min at 4° C. The supernatant was dialyzed against 2 L of 50 mM HEPES, pH 7.5 (buffer A), for 4 h. Buffer A was used to equilibrate a 25 mL Q-Sepharose column using an FPLC. The sample was loaded onto the column, and proteins were eluted with a linear gradient 0-500 mM NaCl with buffer B. Fractions containing VIM-2, determined by SDS-PAGE, were pooled and concentrated to 2-3 mL in an Amicon ultraconcentrator equipped YM-10 membrane. Further purification was conducted with a Sephacryl S-200 gel filtration column using 50 mM HEPES, pH 7.5, containing 150 mM NaCl. Fractions containing pure VIM-2 were pooled, and metal analysis was performed.
as §3, §4

The target of series [4] is T2, VIM-2. The experiment in a line: biochemical. The procedure:
as §5, with “Further purification was conducted with a Sephacryl S-200 gel filtration column using 50 mM HEPES, pH 7.5, containing 150 mM NaCl.” left out
The enzyme inhibition constant (Ki) was derived from initial-velocity measurements by nonlinear regression using competitive-inhibition enzyme kinetics using Graphpad Prism 6.
This is another data set of the same source.

The conditions of series [5]: cited from earlier work.
A further series is described as follows: in vitro. As to conditions: human.
The target of series [6] is T1, NDM-1.
Protocol: Nitrocefin (Cayman, CAS 41906-86-9) was used as the chromogenic substrate for all biochemical assays. […] The rate of product formation was monitored based on the λmax=486 nm absorbance taken at 10 s intervals for 30 mins. […] Velocity versus substrate concentration curves were fitted by nonlinear regression using Michaelis-Menten Enzyme kinetics with Graphpad Prism 6.
For series [7], the system named is VIM-2. Conditions: reported previously, cited from earlier work.
Where [8] appears, read: 50 μM compound, 5 nM MBL, 10 μM nitrocefin, 30 mins, read-out: VIM-2 percentage inhibition.
[9] abbreviates: 50 μM compound, 5 nM MBL, 10 μM nitrocefin, 30 mins.
Where [10] appears, read: 50 μM compound, 5 nM MBL, 10 μM nitrocefin, 30 mins, read-out: NDM-1 percentage inhibition.

Read-outs that look alike come from different tables or passages of the source. A value given as a limit tells only on which side of the number the result lay.

In general, inhibition refers to the drop in the measured response relative to a control, in per cent. As usually defined, the IC50 is the point on the concentration scale where inhibition reaches its midpoint. The term Ki denotes a dissociation constant, usually derived from enzyme kinetics or from competition with a known ligand. The Km is the substrate concentration at which the rate is half of its maximum.

T1 sequence (C7C422 whole entry, looked up, species assumed): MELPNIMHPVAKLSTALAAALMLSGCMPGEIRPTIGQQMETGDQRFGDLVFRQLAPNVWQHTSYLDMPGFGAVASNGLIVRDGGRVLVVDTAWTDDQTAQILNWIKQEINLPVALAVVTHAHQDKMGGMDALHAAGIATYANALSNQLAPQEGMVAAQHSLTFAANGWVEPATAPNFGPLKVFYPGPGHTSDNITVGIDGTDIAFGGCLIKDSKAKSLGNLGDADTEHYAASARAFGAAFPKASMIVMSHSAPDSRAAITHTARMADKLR
Protocol for in vitro: Human embryonic kidney cell line (HEK293) were grown in 100 mm cell culture petri dishes at 37° C. with 5% CO2 in Dulbecco's Modified Eagle's Medium high glucose medium containing 1% penicillin/streptomycin (Sigma-Aldrich, St. Louis, MO) and supplemented with 5% of fetal bovine serum (Thermo Fisher Scientific Gibco®). Cells under 10 passages and the 80% of monitored cell petri dish were used for experiment.
Cytotoxicity of tested compounds were estimated using the MTT method. Cell viability were measured by counting viable cells by using the 3 (4,5dimethylthiazol-2-yl)-2,5-diphenyltetrazolium bromide (MTT) (Sigma-Aldrich, St. Louis, MO) colorimetric dye-reduction assay. […] Following 24 h incubation and attachment, the cells were incubated for 72 h with different concentrations of inhibitors (0.01˜100 μM) in culture media without FBS. The Control cells were supplemented only with a medium without containing FBS. All samples in 96 well plate were incubated at 37° C. at an atmosphere of 5% CO2. […] The absorbance was measured using a micro-plate reader at wavelength 590 nm. The CC50 were obtained based on a comparison with untreated cells by fitting the data to a sigmoidal dose-response equation using Graphpad Prism 6.

As to `CC1(C)S[C@@H]2[C@H](NC(=O)[C@H](N)c3ccc(O)cc3)C(=O)N2[C@H]1C(=O)O` [Amox, amoxicillin], in the series with E. coli, the “E. coli Amox (+) relative percentage growth compared to untreated cells” value was 3.6% and the “growth inhibition of wild type E. coli” value is “over 96%”. Also, in the series with VIM-2 expressing E. coli, the “VIM-2 expressing E. coli Amox (+) relative percentage growth compared to untreated cells” value was 77%.
`O=C(O)[C@H]1/C(=C/CO)O[C@@H]2CC(=O)N21` [Clav, Clavulanate]: the “E. coli Amox (+) relative percentage growth compared to untreated cells” value with E. coli (wild type E. coli, single dose, with 50 μM amoxicillin) turned out to be 2.9%. Besides, the “E. coli Amox (−) relative percentage growth compared to untreated cells” value in the series with E. coli (wild type E. coli, single dose, without amoxicillin) was determined as 86%. For the same compound, the “VIM-2 expressing E. coli Amox (+) relative percentage growth compared to untreated cells” value in the series with VIM-2 expressing E. coli is recorded as 57%. Also, in the series on VIM-2 expressing E. coli (without amoxicillin), the “VIM-2 expressing E. coli Amox (−) relative percentage growth compared to untreated cells” value was determined as 93%.
On to `C[C@H](CS)C(=O)N1CCC[C@H]1C(=O)O` [Compound 1, L-captopril, reference compound], for which the inhibition at 50 µM on NDM-1 [1] (read-out: NDM-1 percentage inhibition, 50 μM compound, 5 nM MBL, 10 μM nitrocefin, 30 mins) was 93%. Further, the “metal content of VIM-2 / removal of Zn(II) from the active site” value at VIM-2 [2] is given as “relatively unaffected”.
Consider `O=C(O)/C(S)=C\c1cccnc1` [Compound 5], for which the inhibition at 50 µM on VIM-2 [3] (setting [8]) is 40%. The NDM-1 percentage inhibition at NDM-1 [1] (setting [9]) came out at 39%. Moreover, on NDM-1 [1] (setting [10]), the inhibition at 50 µM stood at 40%. Besides, at VIM-2 [4], the IC50 is 24 µM and the inhibitory constant (Ki) stood at 4.5 µM.
In turn, `O=C(c1ccc(O)cc1)c1ccc(O)c(O)c1O` [Compound 13] displayed a VIM-2 percentage inhibition on VIM-2 [3] (setting [9]) of 48%. The inhibition at 50 µM on VIM-2 [3] (setting [8]) and on NDM-1 [1] (setting [10]) was 40% each time. The same compound registered an NDM-1 percentage inhibition on NDM-1 [1] (setting [9]) of 36%. The compound also showed an IC50 against VIM-2 [4] of 81 µM. Also, the affinity on VIM-2 [4], expressed as Ki, was 8.8 µM.
On VIM-2 [3] (setting [9]), `O=C1[C@@H](c2ccccc2)SCN1O` [Compound 17] yielded a VIM-2 percentage inhibition of 33%. Moreover, at VIM-2 [3] (setting [8]), the inhibition at 50 µM worked out at 40%. Further, the inhibition at 50 µM at NDM-1 [1] (setting [10]) was determined as 40%. In addition, on VIM-2 [4], inhibition was half-maximal at 41 µM (IC50) and the Ki worked out at 5.3 µM.
For `Oc1cccc2cccnc12` [Compound 31, 8-Hydroxyquinoline], the VIM-2 percentage inhibition at VIM-2 [3] (setting [9]) is on record as 98%. In addition, at VIM-2 [3] (read-out: VIM-2 percentage inhibition, 50 μM compound, 5 nM MBL, 10 μM nitrocefin, 30 mins), the inhibition at 50 µM is greater than 96%. For the same compound, on VIM-2 [4], the IC50 turned out to be 3.6 µM and the Ki is 0.67 µM. Besides, the “metal content of VIM-2 / removal of Zn(II) from the active site” value on VIM-2 [2] is recorded as “do not inhibit VIM-2 by removal of Zn(II)”. Also, the “pKa, hydroxyl group” value in series [5] (hydroxyl group) is 9.89. Further, the “pKa, nitrogen atom” value in series [5] (nitrogen atom) is on record as 5.13.
Consider `Cc1ccc2c(Cl)cc(Cl)c(O)c2n1` [Compound 50], for which the VIM-2 percentage inhibition on VIM-2 [3] (setting [9]) is reported as 95%. In addition, the IC50 at VIM-2 [4] (5 nM MBL, 10 μM nitrocefin, read-out: VIM-2 IC50) was 4.8 µM. Also, the Ki on VIM-2 [4] (nitrocefin substrate, competitive-inhibition fit, read-out: VIM-2 Ki) was 0.96 µM.
Regarding `O=C(O)c1cccc(=S)n1O` [Compound 51, 1-hydroxypyridine-2 (1H)-thione-6-carboxylic acid, reference compound], at VIM-2 [4], the half-maximal inhibitory concentration (IC50) was 0.31 µM and the Ki is 0.02 µM. For the same compound, the CC50 at 72 h in the series “in vitro” is 92 µM.
Regarding `O=C(O)CN(CCN(CC(=O)O)CC(=O)O)CC(=O)O` [EDTA], on VIM-2 [2], the “Zn(II) removed from VIM-2” value is given as 1 equivalent of Zn(II).
For the compound `O=C(Cc1cccs1)N[C@@H]1C(=O)N2C(C(=O)O)=C(/C=C/c3ccc([N+](=O)[O-])cc3[N+](=O)[O-])CS[C@H]12` [nitrocefin, Nitrocefin], the “kcat, hydrolysis of nitrocefin by NDM-1” value on NDM-1 [6] came to 25 s⁻¹. For the same compound, the Km was 2.2 µM at NDM-1 [6] (read-out: Km, hydrolysis of nitrocefin by NDM-1) and 23 µM with VIM-2 [7] (read-out: Km, hydrolysis of nitrocefin by VIM-2). In addition, the “kcat, hydrolysis of nitrocefin by VIM-2” value in the series on VIM-2 [7] was 212 s⁻¹.

The values are drawn from patent publication US12377086B2, “Therapeutic methods, combinations and kits” (priority 2021, dated 2025).
